The results in this text go back to patent US12065445B2, “CDK2 inhibitors and methods of using the same” (Cedilla Therapeutics, Inc., priority 2021, dated 2024).

Structures are written as SMILES.

For test [1], the system named is Kuramochi cells labeled with mApple-H2B. Briefly: IncuCyte Cell Proliferation Assay. It is filed as cell-based. As to conditions: 72 h. Put shortly:
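Cells imaged at 0 and 72 h after compound treatment (10 points, ½ log dilution, 20 μM top), with fluorescent nuclei counted. Fold change in count was normalized to DMSO wells and fitted to dose-response curves to give GI50.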

The next test concerns Kuramochi cells. Briefly: BrdU Cell Proliferation Assay. Format: cell-based. As to conditions: read-out: BrdU - KURAMOCHI.1: IC50. A digest of the protocol:
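Kuramochi cells were seeded at 2,000 cells/well, adhered overnight, then treated with a 10-point, 3-fold compound dilution series for 4 days. Proliferation was measured by a 1-hour BrdU pulse, anti-BrdU peroxidase colorimetric ELISA and 450 nm absorbance. Values were background-subtracted and normalized to DMSO wells.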

Regarding `C[C@@H](OCC1CCCCC1)[C@H](NC(=O)[C@H]1CN(C(=O)c2cnn(Cc3ccccc3)c2)CC12CN(C(=O)[C@H]1CC1(C)C)C2)C(=O)N1CCOCC1` [I-152B], the figures for the IC50 (in test [1]; in the test on Kuramochi cells) were 5 to 20 µM and above 10 µM, respectively.
For the compound `CNC(=O)[C@@H](NC(=O)[C@H]1CN(C(=O)c2cnc(COC(C)(C)C)s2)CC12CN(C(=O)[C@H]1CC1(C)C)C2)[C@@H](C)OCC1CCCCC1` [I-175B], the IC50 in test [1] is 5 to 20 µM; with Kuramochi cells, above 10 µM.
For `CNC(=O)[C@@H](NC(=O)[C@@H]1CN(C(=O)c2cncs2)CC12CN(C(=O)[C@H]1CC1(C)C)C2)[C@@H](C)OCC1CC2CCC1O2` (some centres unmarked) [I-462], the IC50 is above 20 µM in test [1] and above 10 µM in the test with Kuramochi cells.
Consider `C[C@@H](OCC1CCCCC1)[C@H](NC(=O)[C@@H]1CN(C(=O)c2cncs2)CC12CN(C(=O)[C@H]1CC1(F)F)C2)C(=O)N1CCCCC1` [I-296], for which the IC50 (in test [1]; in the test with Kuramochi cells) was 0.5 to 5 µM in each case.
In the case of `C[C@@H](OCC1CCCCC1)[C@H](NC(=O)C1CN(C(=O)c2cncs2)CC12CN(C(=O)[C@H]1CC1(C)C)C2)C(=O)N1CCOCC1` (some centres unmarked) [I-138], the IC50 (in test [1]; with Kuramochi cells) was at most 0.5 µM in each case.
For the compound `CC1(C)C[C@@H]1C(=O)N1CC2(CN(C(=O)c3cnn(Cc4ccccc4)c3)C[C@H]2C(=O)N[C@@H]2CCN(C3CC3)C2=O)C1` [I-259], the IC50 in test [1] is above 20 µM; in the test with Kuramochi cells it was above 10 µM.
Regarding `CNC(=O)[C@@H](NC(=O)[C@@H]1CN(C(=O)c2scnc2C(F)(F)F)CC12CN(C(=O)[C@H]1CC1(C)C)C2)[C@@H](C)OCC1CCCCC1` [I-163A], the values for the half-maximal inhibitory concentration (IC50) (in test [1]; with Kuramochi cells) were above 20 µM and above 10 µM, respectively.
`C[C@@H](OCC1CCC(F)(F)CC1)[C@H](NC(=O)[C@@H]1CN(C(=O)c2cncs2)CC12CN(C(=O)[C@H]1CC1(C)C)C2)C(=O)N1CCC2(CC1)CC2` [I-380]: the IC50 (in test [1]; with Kuramochi cells) was at most 0.5 µM throughout.
As for `CNC(=O)[C@@H](NC(=O)[C@@H]1CN(C(=O)c2cnn(Cc3ccccc3)c2)CC12CN(C(=O)N(C)C(C)C)C2)[C@@H](C)OCC1CCCCC1` [I-274, (S)-6-(1-benzyl-1H-pyrazole-4-carbonyl)-N8-((2S,3R)-3-(cyclohexylmethoxy)-1-(methylamino)-1-oxobutan-2-yl)-N2-isopropyl-N2-methyl-2,6-diazaspiro[3.4]octane-2,8-dicarboxamide], the results for the IC50 (in test [1]; in the test with Kuramochi cells) were 5 to 20 µM and 5 to 10 µM, respectively.
As to `COC1CCN(C(=O)[C@@H](NC(=O)[C@@H]2CN(C(=O)c3cncs3)CC23CN(C(=O)[C@H]2CC2(C)C)C3)[C@@H](C)OCC2CCC(F)(F)CC2)CC1` [I-385], the IC50 (in test [1]; in the test with Kuramochi cells) was at most 0.5 µM in each case.
For `CC1(C)C[C@@H]1C(=O)N1CC2(CN(C(=O)c3cnn(Cc4ccccc4)c3)C[C@H]2C(=O)NCc2ccc(Cl)nn2)C1` [I-376], the IC50 in test [1] was above 20 µM; in the test with Kuramochi cells, above 10 µM.
In the same order, the values of `CNC(=O)[C@@H](NC(=O)[C@H]1CN(C(=O)c2sc(C)nc2C)CC12CN(C(=O)[C@H]1CC1(C)C)C2)[C@@H](C)OCC1CCCCC1` [I-213B] are above 20 µM and above 10 µM.
In the same order, the values of `CNC(=O)[C@@H](NC(=O)[C@@H]1CN(C(=O)c2scnc2Cl)CC12CN(C(=O)[C@H]1CC1(C)C)C2)[C@@H](C)OCC1CCCCC1` [I-157A] are 0.5 to 5 µM and 0.5 to 5 µM.
Turning to `CC1(C)C[C@@H]1C(=O)N1CC2(CN(C(=O)c3cnn(Cc4ccccc4)c3)C[C@H]2C(=O)N[C@@H]2CCN(c3ccccc3)C2)C1` [I-207], the IC50 in test [1] is 5 to 20 µM; with Kuramochi cells, at most 0.5 µM.
On to `COC[C@@H]1CCCN(C(=O)[C@@H](NC(=O)C2CN(C(=O)c3cncs3)CC23CN(C(=O)[C@H]2CC2(C)C)C3)[C@@H](C)OCC2CCCCC2)C1` (some centres unmarked) [I-195], for which the IC50 (in test [1]; in the test with Kuramochi cells) was at most 0.5 µM in each case.
Consider `C[C@@H](OCC1CCCCC1)[C@H](NC(=O)C1CN(C(=O)C2CCC(=O)NC2)CC12CN(C(=O)[C@H]1CC1(C)C)C2)C(=O)N1CCCCC1` (some centres unmarked) [I-265], for which the results for the IC50 (in test [1]; in the test with Kuramochi cells) were above 20 µM and above 10 µM, respectively.
Turning to `CNC(=O)[C@@H](NC(=O)[C@@H]1CN(C(=O)c2cnn(Cc3ccccc3)c2)CC12CN(C(=O)[C@H]1CC1(C)C)C2)[C@@H](C)OCC1CCCCCC1` [I-166A], the half-inhibitory concentration (IC50) (in test [1]; with Kuramochi cells) was at most 0.5 µM each time.
Consider `CNC(=O)[C@@H](NC(=O)[C@@H]1CN(C(=O)c2scnc2C(C)(C)C)CC12CN(C(=O)[C@H]1CC1(C)C)C2)[C@@H](C)OCC1CCCCC1` [I-231A], for which the concentration for half-maximal inhibition (IC50) is above 20 µM in test [1] and above 10 µM in the test on Kuramochi cells.
In the case of `COC[C@H]1CCCN(C(=O)[C@@H](NC(=O)[C@@H]2CN(C(=O)c3cncs3)CC23CN(C(=O)[C@H]2CC2(C)C)C3)[C@@H](C)OCC2CCCCC2)C1` [I-196A, (S)—N-((2S,3R)-3-(cyclohexylmethoxy)-1-((S)-3-(methoxymethyl)piperidin-1-yl)-1-oxobutan-2-yl)-2-((S)-2,2-dimethylcyclopropanecarbonyl)-6-(thiazole-5-carbonyl)-2,6-diazaspiro[3.4]octane-8-carboxamide], the IC50 (in test [1]; with Kuramochi cells) was at most 0.5 µM throughout.
Regarding `CC1(C)C[C@@H]1C(=O)N1CC2(CN(C(=O)c3cnn(Cc4ccccc4)c3)C[C@H]2C(=O)NCc2ccc(C3CCCCC3)nn2)C1` [I-377], the 50% inhibitory concentration (IC50) in test [1] was above 20 µM; with Kuramochi cells it was above 10 µM.
Taken in the same sequence, the figures for `CNC(=O)C(NC(=O)[C@@H]1CN(C(=O)c2cncs2)CC12CN(C(=O)[C@H]1CC1(C)C)C2)c1nc(C2CCCCC2)co1` (some centres unmarked) [I-425] were above 20 µM and above 10 µM.
Take `COC[C@H]1CCCN(C(=O)[C@@H](NC(=O)[C@@H]2CN(C(=O)c3cncs3)CC23CN(C(=O)[C@H]2CC2(C)C)C3)[C@@H](C)O[C@H](C)C2CCCCC2)C1` [I-367]: the IC50 (in test [1]; with Kuramochi cells) was 0.5 to 5 µM throughout.
In the case of `COC[C@H]1CCCN(C(=O)[C@H](C)NC(=O)[C@@H]2CN(C(=O)c3cncs3)CC23CN(C(=O)[C@H]2CC2(C)C)C3)C1` [I-325], the IC50 is above 20 µM in test [1] and above 10 µM with Kuramochi cells.
Take `CC1(C)C[C@@H]1C(=O)N1CC2(CN(C(=O)c3cnn(Cc4ccccc4)c3)C[C@H]2C(=O)N2CCN(CC3CCCCC3)C(=O)C2)C1` [I-253]: the IC50 in test [1] lay in the range of 5 to 20 µM; in the test with Kuramochi cells, 5 to 10 µM.
In the same order, the values of `CC1(C)C[C@@H]1C(=O)N1CC2(CN(C(=O)c3cncs3)C[C@H]2C(=O)NC(c2cccc(C3CCCCC3)n2)P(C)(C)=O)C1` (some centres unmarked) [I-494] are above 20 µM and above 10 µM.
In the case of `CNC(=O)[C@@H](CO)NC(=O)C1CN(C(=O)c2cnn(Cc3ccccc3)c2)CC12CN(C(=O)[C@H]1CC1(C)C)C2` (some centres unmarked) [I-261], the IC50 in test [1] is above 20 µM; in the test with Kuramochi cells, above 10 µM.
Take `CNC(=O)[C@@H](NC(=O)[C@H]1CN(C(=O)c2scnc2C2CCCC2)CC12CN(C(=O)[C@H]1CC1(C)C)C2)[C@@H](C)OCC1CCCCC1` [I-224A]: the IC50 in test [1] is above 20 µM; in the test on Kuramochi cells, above 10 µM.
As for `COC[C@H]1CCCN(C(=O)[C@@H](NC(=O)[C@@H]2CN(C(=O)c3cncs3)CC23CN(C(=O)[C@H]2CC2(C)C)C3)[C@@H](C)OCc2ccccc2F)C1` [I-321], the half-maximal inhibitory concentration (IC50) (in test [1]; in the test with Kuramochi cells) was 0.5 to 5 µM in each case.
Consider `CNC(=O)[C@@H](NC(=O)[C@@H]1CN(C(=O)c2cnn(Cc3ccccc3)c2)CC12CN(C(=O)C(C)C1CC1)C2)[C@@H](C)OCc1ccccc1` (some centres unmarked) [I-277], for which the results for the IC50 (in test [1]; with Kuramochi cells) were above 20 µM and above 10 µM, respectively.
In the same order, the values of `CNC(=O)[C@@H](NC(=O)[C@H]1CN(C(=O)c2cnc(C)s2)CC12CN(C(=O)[C@H]1CC1(C)C)C2)[C@@H](C)OCC1CCCCC1` [I-156B] are above 20 µM and above 10 µM.
For `CNC(=O)[C@@H](NC(=O)[C@@H]1CN(C(=O)c2cnn(Cc3ccccc3)c2)CC12CN(C(=O)[C@H]1CC1(C)C)C2)[C@@H](C)OCC1CCCCC1` [I-123A, (S)-6-(1-benzyl-1H-pyrazole-4-carbonyl)-N-((2S,3R)-3-(cyclohexylmethoxy)-1-(methylamino)-1-oxobutan-2-yl)-2-((S)-2,2-dimethylcyclopropane-1-carbonyl)-2,6-diazaspiro[3.4]octane-8-carboxamide], the IC50 in test [1] was 0.5 to 5 µM; with Kuramochi cells, at most 0.5 µM.
Turning to `CO[C@H]1COCC[C@H]1NC(=O)[C@H]1CN(C(=O)c2cnn(Cc3ccccc3)c2)CC12CN(C(=O)[C@H]1CC1(C)C)C2` [I-134B], the IC50 was above 20 µM in test [1] and above 10 µM in the test on Kuramochi cells.
Consider `C[C@@H](OCC12CCC(CC1)OC2)[C@H](NC(=O)[C@@H]1CN(C(=O)c2cncs2)CC12CN(C(=O)[C@H]1CC1(C)C)C2)C(=O)N1CCC2(CC1)COC2` [I-336], for which the results for the 50% inhibitory concentration (IC50) (in test [1]; in the test with Kuramochi cells) were 5 to 20 µM and above 10 µM, respectively.
On to `CNC(=O)[C@@H](NC(=O)[C@@H]1CN(C(=O)c2sc(C(C)C)nc2C)CC12CN(C(=O)[C@H]1CC1(C)C)C2)[C@@H](C)OCC1CCCCC1` [I-227A], for which the figures for the IC50 (in test [1]; in the test with Kuramochi cells) were above 20 µM and above 10 µM, respectively.
Consider `COC[C@H]1CCCN(C(=O)[C@@H](NC(=O)[C@@H]2CN(C(=O)c3cncs3)CC23CN(C(=O)[C@H]2CC2(C)C)C3)[C@@H](C)OC(C)C2CCC(F)(F)CC2)C1` (some centres unmarked) [I-360], for which the IC50 (in test [1]; in the test with Kuramochi cells) was 0.5 to 5 µM throughout.
Consider `CNC(=O)[C@@H](NC(=O)[C@@H]1CN(C(=O)c2cnn(Cc3ccccc3)c2)CC12CN(C(=O)[C@H]1CC1(C)C)C2)[C@@H](C)NCC1CCCCC1` [I-269, (S)-6-(1-benzyl-1H-pyrazole-4-carbonyl)-N-((2S,3R)-3-((cyclohexylmethyl)amino)-1-(methylamino)-1-oxobutan-2-yl)-2-((S)-2,2-dimethylcyclopropane-1-carbonyl)-2,6-diazaspiro[3.4]octane-8-carboxamide], for which the IC50 in test [1] is 5 to 20 µM; in the test on Kuramochi cells, above 10 µM.
Turning to `CNC(=O)[C@@H](NC(=O)[C@@H]1CN(C(=O)c2cnc(Cl)s2)CC12CN(C(=O)[C@H]1CC1(C)C)C2)[C@@H](C)OCC1CCCCC1` [I-189A], the figures for the concentration for half-maximal inhibition (IC50) (in test [1]; in the test on Kuramochi cells) were 5 to 20 µM and above 10 µM, respectively.

A word on the IC50: it is the concentration that inhibits the measured activity by half.
